Patent US4053580A, “Microsealed pharmaceutical delivery device” (G. D. Searle & Co., priority 1975, dated 1977)

Legend:
Format in all cases: physicochemical
[1] = Release of pharmaceutical from microsealed silicone delivery device (release rate and kinetics); conditions: device: 2 parts drug in 2 parts 40% PEG (MW 380-420) in water, Silastic 382 matrix, Silastic tubing
Excerpt: amount of pharmaceutical released decreases with time and Q - t
Those skilled in the pharmaceutical arts will know how to determine toxic levels of a given pharmaceutical, and the minimum effective dose. With this information a proper dosage form can be prepared by measuring the in vivo rate of elution of a given pharmaceutical by standard analytic tecniques e.g. spectroscopic or radio immunoassay analysis. In vitro diffusion of the pharmaceutical from a delivery device may be determined by the methods of Chien and Lambert, J. Pharm. Sci., 63, 365 (1974) or by methods described in U.S. Pat. No. 3,710,795.
A biologically acceptable silicone polymer matrix containing a pharmaceutical in a hydrophilic solvent system is prepared as follows: […] of ethynodiol diacetate at 37° C. by vigorous agitation for 10 minutes. To this mixture is added 6 parts of liquid silicone polymer of the formula [drawing 5] sold as Silastic® Medical Grade 382 Elastomer by Dow-Corning and this combination is stirred with a mechanical mixer at 1000 rpm for 28 minutes. 0.015 Parts of a cross-linking agent (stannous octanoate is added to the combination and stirring is continued for 2 minutes. The combination is placed in a silicone rubber tubing (I.D. 3.18mm, 0.D. 6.35mm sold by Dow-Corning as Medical Grade Silastic Tubing No. 601-365). This tubing is a silicone polymer of the formula The system is allowed to cross-link for 1 hour and then the tubing is sectioned to provide pharmaceutical delivery devices with the desired amount of pharmaceutical. The ends of the sections may be sealed or left open and additional openings may be made in the walls of the tubing to facilitate higher but still constant rates of release. This device releases 315.6 mcg/cm^2 /day of ethynodiol diacetate. Replacement of the ethynodiol diacetate with 2 parts of one of the following pharmaceuticals provides the indicated release rate: […]

[2] = as above; conditions: for Kinetics of release: Q - t = partition controlled, constant release independent of time
[3] = Solubility of pharmaceutical (Cl) in hydrophilic solvent system at 37° C, 24 h shaking; conditions: organic solvent or mixture
Protocol: Solubility of a pharmaceutical (Cl) is measured by constant shaking for 24 hours an excess amount of powdered pharmaceutical in 10 ml. of a hydrophilic solvent system at 37° C. The solution is filtered and the content of the pharmaceutical is measured.
(§1) Table I is illustrative of the relation between Cl, Kb, release rate, and kinetics of release of 17α-ethynyl-4-estrene-3β,17β-diol 3,17-diacetate (ethynodiol diacetate) in a hydrophilic solvent system of polyethylene glycol having a molecular weight of about 400.

[4] = Partition coefficient (Kb) between hydrophilic solvent system and silicone polymer matrix
Protocol: Partition coefficient K(b) is measured by immersing a known surface area of biologically acceptable silicone polymer matrix material in a solution of the pharmaceutical in the hydrophilic solvent system with constant shaking for 24 hours and then measuring the amount of pharmaceutical remaining in the solvent system.
Ci = initial concentration of pharmaceutical
Cl = Equilibrium concentration of pharmaceutical
as §1

Question: Which Release rate [1] does the source give for `CC(=O)S[C@@H]1CC2=CC(=O)CC[C@]2(C)[C@H]2CC[C@@]3(C)[C@@H](CC[C@@]34CCC(=O)O4)[C@H]12` [7α-acetylthio-17α-(2-carboxyethyl)-17β-hydroxyandrost-4-en-3-one lactone] here?
Answer: 18.25 mcg/cm^2 /day

Question: Which Release rate [1] does the source give for `COC(=O)C1CC2=CC(=O)CCC2(C)C2CCC3(C)C(CCC34CCC(=O)O4)C12` (stereo not drawn) [17-hydroxy-7β-methoxycarbonyl-3-oxo-17α-pregn-4-ene-21-carboxylic acid γ-lactone] here?
Answer: 63.08 mcg/cm^2 /day

Question: For `CC(=O)O[C@]1(C(C)=O)CC[C@H]2[C@@H]3CCC4=CC(=O)CC[C@@H]4[C@H]3[C@@H](C)C[C@@]21C` [17α-acetoxy-11β-methyl-19-norpregn-4-ene-3,20-dione], which Release rate [1] is on record?
Answer: 51.89 mcg/cm^2 /day

Question: For `CC(=O)OCC(=O)[C@H]1CC[C@H]2[C@@H]3CCC4=CC(=O)CC[C@]4(C)[C@H]3CC[C@]12C` [Desoxycorticosterone acetate], which Release rate [1] is on record?
Answer: 55.1 mcg/cm^2 /day

Question: Which results are given for `C#C[C@]1(OC(C)=O)CC[C@H]2[C@@H]3CCC4=C[C@@H](OC(C)=O)CC[C@@H]4[C@H]3CC[C@@]21C` [ethynodiol diacetate, 17α-ethynyl-4-estrene-3β,17β-diol 3,17-diacetate]?
Answer: Release rate time dependence with alternative solvent systems ([2]; 1,3-butanediol, propylene glycol, PEG 4000, PEG 6000, Solketal, Medical Fluid 360 solvent systems): independent of time; Release from devices with alternative solvent systems ([2]; 1,3-butanediol, propylene glycol, PEG 4000, PEG 6000, Solketal, Medical Fluid 360 solvent systems, prepared as for PEG 400): 150 - 275 mcg/cm^2; Rate of Pharmaceutical Release ([2]; 30% PEG 400): 297.8 gm/10^6 cm^2/day; Kinetics of release ([2]; 30% PEG 400): Q - t; Rate of Pharmaceutical Release ([2]; 50% PEG 400): 315.6 gm/10^6 cm^2/day; Kinetics of release ([2]; 50% PEG 400): Q - t; Rate of Pharmaceutical Release ([2]; 60% PEG 400): 319.4 gm/10^6 cm^2/day; Kinetics of release ([2]; 60% PEG 400): Q - t; Rate of Pharmaceutical Release ([2]; 80% PEG 400): 1203 gm/10^6 cm^2/day^1/2; Rate of Pharmaceutical Release ([2]; 100% PEG 400): 1095 gm/10^6 cm^2/day^1/2; Release rate from silicone rubber implantates, relation to time ([2]; in the absence of microsealed compartments containing a suitable hydrophilic solvent): porportional to the square root of time (T^1/2); solubility at 24 h ([3]; 30% PEG 400, 37° C): 64.6 µg/mL; solubility at 24 h ([3]; 50% PEG 400, 37° C): 156 µg/mL; solubility at 24 h ([3]; 60% PEG 400, 37° C): 437 µg/mL; solubility at 24 h ([3]; 80% PEG 400, 37° C): 4460 µg/mL; solubility at 24 h ([3]; 100% PEG 400, 37° C): 45600 µg/mL; Release rate [1]: 315.6 mcg/cm^2 /day; Kb/Cl ([4]; 30% PEG 400): 0.355 mL/µg; Kb/Cl ([4]; 50% PEG 400): 0.061 mL/µg; Kb/Cl ([4]; 60% PEG 400): 0.0078 mL/µg; Kb/Cl ([4]; 80% PEG 400): 7.4e-05 mL/µg; Kb/Cl ([4]; 100% PEG 400): 7e-07 mL/µg

Question: With `Cc1ncc([N+](=O)[O-])n1CCO` [metronidazole] as the compound, how does the Release rate [1] read?
Answer: 4.23 mcg/cm^2 /day
